Literature values as cited in patent US8968710B1, “Topical anesthetic” (priority 2005, dated 2015).

Structure (SMILES): CCCCNc1ccc(C(=O)OCCN(C)C)cc1 [Tetracaine]
- solubility in alcohol, ether, benzene and chloroform (alcohol, ether, benzene, chloroform): soluble
- solubility in water (water): very slightly soluble
